Measurements: patent publication US9526915B2, “Methods for regulating cell mitosis by inhibiting serine/threonine phosphatase” (priority 2008, dated 2016)
Entries after “also recorded” stand apart in the source; their conditions may differ.

Key:
U87MG cells [1] = test: Cell cycle distribution of U87MG cells by FACS; type: cell-based, human; conditions: 48 hours
Procedure: (§1) Cells in unsynchronized logarithmic growth were exposed to vehicle or drug and adherent cells and cells in the media were collected. Harvested cells were fixed with 70% cold ethanol for 20 min at −20 degrees, washed with PBS, and stained with 10 ug/ml of PI and 1 ug/ml RNAse in TBS for 30 minutes and analyzed by FACS. A, Flow cytometry profiles of U87 cells after exposures to DMSO only, compound 102 only, 5 uM; TMZ only, 25 uM; compound 102 with TMZ combination, doxorubicin only, 2.0 uM and compound 102 with doxorubicin combination. B, Flow cytometry profiles of U373 cells. Exposures as in A, and C, Schema of proposed mechanisms of compound 102 enhancement of cancer chemotherapy.
(§2) We analyzed cell cycle patterns of U87MG and U373 cells 48 hours after exposure to TMZ or DOX alone and in combination with compound 102.

U87 cells = test: U87 GBM cell growth in vitro, viable cells counted; type: cell-based; conditions: Homo sapiens, U-87 MG, read-out: IC50 inhibition of GBM cell growth
Procedure: FIG. 6: Effect of Compound 102 on U87 Cells In Vitro at 1 uM; 2 uM; 5 uM; and 10 uM.
Viable cells were counted (mean and s.d.; n=3; Coulter particle counter).
Recent work led to the discovery that treatment with the compound, compound 100, and several homologs inhibit the serine/threonine protein phosphatases PP2A (FIG. 1). Compound 102 inhibits PP2A (IC50=˜0.4 μM) more potently than PP1 (IC50=˜80 μM) (FIG. 2). Associated with their inhibition of PP2A, Compound 100 and homologs inhibit a variety of human cancer cell types growing in cell culture and growing in vivo as xenografts implanted subcutaneously in SCID mice (FIG. 3 and FIG. 4). […] Death of these cancer cells is associated with profound disruption of microtubular structures. Such patterns of disordered microtubules during mitosis have been noted after exposure of cancer cells to spindle toxins include such vincristine, vinblastine, taxol, taxotere, ionizing radiation, and DNA damaging agents including anthracyclines and the platinum based compounds. The morphologic appearance of cells displaying these characteristics has been called the mitotic catastrophe phenotype (Castedo et al 2004).

U87MG cells [2] = test: Cellular and molecular changes in U87MG cells (Western blots, IFS); type: cell-based, human
Procedure: D, Western blots of U87 lysates: TCTP, pPlk (Tre-210), total Plk, and β-actin. E, IFS of TCTP in U87 cells, F, Western blots p53 (ser-15), pMDM2 (ser-166), and β-actin and G, IFS of p53 (ser-15).
5×10^6 U87MG cells were inoculated s.c. into each flank of 20 SCID mice. When the xenografts were 0.5+/−0.1 cm (day 0), 5 animals each received i.p. vehicle alone days 1-12 (50% DMSO/H20); compound 102 alone at 1.5 mg/kg days 1-3, 5-7, & 9-11; TMZ alone at 80 mg/kg days 4, 8, 12; or both drugs at the same doses and schedules. If xenografts reached 1800 mm^3, animals were sacrificed. […] B, Survival curve combining the data from the study shown in FIG. 12A, with a second identical study involving a total of 10 animals with two xenografts each. Disease-free survival was defined as no recurrence of either xenografts. […] As in 12A, except that xenografts of SH-SY5Y cells were implanted in one flank only and animals were treated with one additional cycle of drugs, i.e., compound 102 on days 13-15, TMZ, on day 16, and compound 102 plus TMZ on the same schedules. […] E, Western blots of U87 cells in culture 24 hours after exposure to compound 102 at 2.5 uM, TMZ at 25 uM or DOX at 2 uM, and compound 102 plus TMZ or DOX. F, Western blots of U373 cells 24 hours after exposure to compound 102 at 2.5 uM, doxorubicin at 2 uM, and both drugs. G, Western blots of U373 cells 24 hours after exposure to TMZ at 25 uM, okadaic acid at 2 nM, and both drugs.
TCTP is an abundant, highly conserved, multifunctional protein that binds to and stabilizes microtubules before and after mitosis and also exerts potent anti-apoptotic activity (Bommer and Thiele, 2004; Yarm, 2002; Susini et al, 2008) (FIG. 11E).
[…] Akt-1 activation, however, may be anti- or proapoptotic depending on the context of cell signaling (Andrabi et al, 2007).
The effects of compound 102, TMZ, doxorubicin (DOX), a widely used anti-cancer drug that disrupts DNA replication, compound 102 plus TMZ, and compound 102 plus DOX on the amount of pAkt, p53 and MDM2 in U87MG, a cell line with wild-type p53, and in U373, a cell line with mutant p53 (Short et al, 2007) were assessed by Western blots.

U373 cells = test: Cell cycle distribution of U373 cells by FACS; type: cell-based, human; conditions: U373, 48 hours
Procedure: as §1, §2

[3] = compound 102 5 uM, TMZ 25 uM, doxorubicin 2.0 uM
[4] = U87MG, 24 hours, compound 102 2.5 uM, TMZ 25 uM, DOX 2 uM

## CC(C)(C)OC(=O)N1CCN(C(=O)C2C(C(=O)O)[C@H]3CC[C@@H]2O3)CC1 (stereo partly drawn) [Compound 102]
U87MG cells [1]; [3]
  G1 phase cells: decreased
U87MG cells [1]; same concentrations
  G2/M phase cells: prominently increased
  S phase cells: modestly increased
U87 cells
  IC50: ~4 µM
U87MG cells [2]; 24 hour, compound 102 2.5 uM, TMZ 25 uM
  intracellular levels of p53 by immunofluorescence staining: reduction
U87MG cells [2]; U87MG, 2.5 uM, 24 hour
  TCTP: marked decrease
  microtubule and mitotic morphology: disordered microtubules and abnormal mitotic figures
  pPlk-1: increased
  phosphorylated MDM2: increased
U87MG cells [2]; [4]
  MDM2: increased
  p53: decreased; also recorded: eliminated
  pAkt-1: increased
U373 cells; [3]
  G1 phase cells: no effect
U373 cells; same concentrations
  G2/M phase cells: no effect
  S phase cells: no effect
